Results as given in PMC4071569, “Investigation of Indolglyoxamide and Indolacetamide Analogues of Polyamines as Antimalarial and Antitrypanosomal Agents” (Marine Drugs, 2014).
Where two headings read alike, the source gives them in different places.

How the values were obtained:
[1] = system: Trypanosoma brucei rhodesiense, STIB 900 strain, trypomastigotes stage; design: method as in PMID 21348447; settings: data taken from ref 24, read-out: IC50 T. b. rhod.; cited from earlier work
[2] = system: L6 rat skeletal myoblast cell line; design: method as in PMID 21348447; settings: data taken from ref 24; cited from earlier work
[3] = system: Plasmodium falciparum, K1 strain, IEF stage; settings: cited from earlier work; for Pf SI (selectivity index for P. falciparum = IC50 L6/IC50 Pf): K1 strain vs L6
[4] = system: Plasmodium falciparum, NF54 strain, IEF stage; assay: In vitro antimalarial activity, NF54 drug sensitive strain; type: cell-based; settings: for Pf SI (selectivity index for P. falciparum = IC50 L6/IC50 Pf): NF54 strain vs L6; for IC50: NF54 strain, IEF stage, average of two independent assays, read-out: IC50 P. falc.
Description: (§1) The in vitro activities against the protozoan parasites T.b. rhodesiense, and P. falciparum and cytotoxicity assessment against L6 cells were determined as reported elsewhere.

[5] = system: L6 rat skeletal myoblast cell line; assay: Cytotoxicity towards L6 cells; type: cell-based; settings: L6 rat skeletal myoblast cell line; average of two independent assays; read-out: IC50 L6
Description: as §1

[6] = system: Trypanosoma brucei rhodesiense, STIB 900 strain, trypomastigotes stage; assay: In vitro anti-trypanosomal activity (growth inhibition); type: cell-based; settings: STIB 900 strain, trypomastigotes, average of two independent assays, read-out: IC50 T. b. rhod.
Description: as §1

[7] = system: GFP-transfected P. berghei strain ANKA; assay: In vivo anti-malarial efficacy in P. berghei infected mice; design: species or system Plasmodium berghei; settings: repeated ip dose of 50 (mg/kg)/day for four days
Description: Analogue 20 was selected for in vivo evaluation in Plasmodium berghei infected mice. […] No increase in mean survival time was observed.
In vivo anti-malarial activity was assessed as previously described. Groups of three female NMRI mice (20–22 g) were intravenously infected with 2 × 10^7 parasitized erythrocytes on day 0 with GFP-transfected P. berghei strain ANKA [32]. Compounds were formulated in 100% DMSO, diluted 10-fold in distilled water and administered intraperitoneally in a volume of 10 mL·kg^−1 on four consecutive days (4, 24, 48 and 72 h post infection). Parasitemia was determined on day 4 post infection (24 h after last treatment) by FACS analysis. Activity was calculated as the difference between the mean per cent parasitaemia for the control (n = 5 mice) and treated groups expressed as a per cent relative to the control group. The survival of the animals was usually monitored up to 30 days: a compound was considered curative if the animal survived to day 30 after infection with no detectable parasites. In vivo efficacy studies in mice were conducted according to the rules and regulations for the protection of animal rights (“Tierschutzverordnung”) of the Swiss “Bundesamt für Veterinärwesen”. They were approved by the veterinary office of Canton Basel-Stadt, Switzerland.

[8] = K1 strain, IEF stage, data taken from ref 24, read-out: IC50 P. falc.

| Compound | Pf SI (selectivity index for P. falciparum = IC50 L6/IC50 Pf) [4] | IC50 [5] | IC50 ([4]; Plasmodium falciparum) | IC50 ([6]; Trypanosoma brucei) | also measured |
| --- | --- | --- | --- | --- | --- |
| NCCCCNCCCNC(=O)C(=O)c1c[nH]c2cc(Br)ccc12 [Compound 3, didemnidine B] | – | – | – | – | IC50 [1]: 44 µM; IC50 [2]: 25 µM; Pf SI (selectivity index for P. falciparum = IC50 L6/IC50 Pf) ([3]; data taken from ref 24): 1.7; IC50 [3, 8]: 15 µM |
| COc1cc(CC(=O)NCCCNCCCCNCCCNC(=O)Cc2ccc(O)c(OC)c2)ccc1O [orthidine F, reference compound] | – | – | – | – | IC50 ([3]; K1 dual drug-resistant strain, read-out: IC50 antimalarial potency (P. falciparum)): 0.89 µM |
| N^1,N^4-Bis(3-(2-(7-methoxy-1H-indol-3-yl)acetamido)propyl)butane-1,4-diaminium 2,2,2-trifluoroacetate [Compound 16] | 48 | 62 µM | – | – | IC50 [4]: 1.3 µM; IC50 [6]: 45 µM |
| COc1cccc2c(C(=O)C(=O)NCCCNCCCCCCCCNCCCNC(=O)C(=O)c3c[nH]c4c(OC)cccc34)c[nH]c12.O=C(O)C(F)(F)F.O=C(O)C(F)(F)F [Compound 28, N^1,N^8-Bis(3-(2-(7-methoxy-1H-indol-3-yl)-2-oxoacetamido)propyl)octane-1,8-diaminium 2,2,2-trifluoroacetate] | 55 | 6.6 µM | 0.12 µM | 2.1 µM | – |
| COc1cccc2c(C(=O)C(=O)NCCCN(CCCCCCCCN(CCCNC(=O)C(=O)c3c[nH]c4c(OC)cccc34)C(=O)OC(C)(C)C)C(=O)OC(C)(C)C)c[nH]c12 [Compound 20, Di-tert-butyl Octane-1,8-diylbis((3-(2-(7-methoxy-1H-indol-3-yl)-2-oxoacetamido)propyl)carbamate)] | ≥1300 | ≥ 120 µM | 0.092 µM | 61 µM | increase in mean survival time [7]: No increase; reduction in parasitaemia ([7]; parasitemia on day 4 post infection): 20.9% |
| COc1ccc2c(C(=O)C(=O)NCCCN(CCCCCCCCN(CCCNC(=O)C(=O)c3c[nH]c4cc(OC)ccc34)C(=O)OC(C)(C)C)C(=O)OC(C)(C)C)c[nH]c2c1 [Compound 19, Di-tert-butyl Octane-1,8-diylbis((3-(2-(6-methoxy-1H-indol-3-yl)-2-oxoacetamido)propyl)carbamate)] | – | ≥ 120 µM | 0.14 µM | 6.1 µM | melting point: 92 °C |
| COc1ccc2[nH]cc(C(=O)C(=O)NCCCNCCCCCCCCNCCCNC(=O)C(=O)c3c[nH]c4ccc(OC)cc34)c2c1.O=C(O)C(F)(F)F.O=C(O)C(F)(F)F [Compound 26, N^1,N^8-Bis(3-(2-(5-methoxy-1H-indol-3-yl)-2-oxoacetamido)propyl)octane-1,8-diaminium 2,2,2-trifluoroacetate] | 100 | 13 µM | 0.13 µM | 0.78 µM | – |
| COc1cccc2c(C(=O)C(=O)NCCCN(CCCCCCCCCCCCN(CCCNC(=O)C(=O)c3c[nH]c4c(OC)cccc34)C(=O)OC(C)(C)C)C(=O)OC(C)(C)C)c[nH]c12 [Compound 24, Di-tert-butyl Dodecane-1,12-diylbis((3-(2-(7-methoxy-1H-indol-3-yl)-2-oxoacetamido)propyl)carbamate)] | ≥65 | ≥ 110 µM | 1.7 µM | 63 µM | – |
| O=C(NCCCNCCCCCCCCNCCCNC(=O)C(=O)c1c[nH]c2ccccc12)C(=O)c1c[nH]c2ccccc12.O=C(O)C(F)(F)F.O=C(O)C(F)(F)F [Compound 25, N^1,N^8-Bis(3-(2-(1H-indol-3-yl)-2-oxoacetamido)propyl)octane-1,8-diaminium 2,2,2-trifluoroacetate] | 170 | 19 µM | 0.11 µM | 2.5 µM | – |
| O=C(Cc1c[nH]c2ccccc12)NCCCNCCCCNCCCNC(=O)Cc1c[nH]c2ccccc12.O=C(O)C(F)(F)F.O=C(O)C(F)(F)F [Compound 36, N^1,N^4-Bis(3-(2-(1H-indol-3-yl)acetamido)propyl)butane-1,4-diaminium 2,2,2-trifluoroacetate] | 410 | 74 µM | 0.18 µM | 75 µM | – |
| NCCCCNCCCNC(=O)C(=O)c1c[nH]c2ccccc12 [Compound 2, didemnidine A] | – | – | – | – | IC50 [1]: 59 µM; IC50 [2]: 24 µM; Pf SI (selectivity index for P. falciparum = IC50 L6/IC50 Pf) ([3]; data taken from ref 24): 0.59; IC50 [3, 8]: 41 µM |
| CC(C)(C)OC(=O)NCCCCNCCCNC(=O)C(=O)c1c[nH]c2cc(Br)ccc12 [Compound 4] | – | – | – | – | IC50 [1]: 9.9 µM; IC50 [2]: 25 µM; Pf SI (selectivity index for P. falciparum = IC50 L6/IC50 Pf) ([3]; data taken from ref 24): 3.0; IC50 [3, 8]: 8.4 µM |
